Measured values taken from patent US5250428A, “L-gulono-gamma-lactone-dehydrogenase for producing vitamin C” (Hoffmann-La Roche Inc., priority 1990, dated 1993).
Several values for one entry are separate records, joined by “and”; a condition that tells them apart may be missing. Equal values may be shown once.

Assays:
[1] = system: L-gulono-gamma-lactone dehydrogenase (GLDH); assay: Substrate specificity of GLDH (DCIP reduction enzyme assay); assay type: biochemical, Gluconobacter oxydans DSM 4025; conditions: substrate 400 mM; for Relative activity (%): 25° C., DCIP/PMS, L-gulono-gamma-lactone = 100
Protocol: (§1) The enzyme assay was performed at 25° C. by measuring the decrease of absorbance at 600 nm of DCIP spectrophotometrically. One unit of enzyme activity was defined as the amount of enzyme which catalyzed the reduction of 1 μmole of DCIP per minute. The extinction coefficient of DCIP at pH 7.0 was taken as 14.5 mM^-1. A cuvette with 1 cm light path contained 0.16 mM DCIP, 1.6 mM phenazine methosulfate, 200 mM potassium phosphate buffer, 400 mM L-gulono-gamma-lactone, enzyme solution and water in a final volume of 0.5 ml. A reference cuvette contained all components except L-gulono gamma-lactone. The reaction was started by the addition of L-gulono-gamma-lactone. Enzyme activity was measured as the initial reduction rate of DCIP.
Substrate specificity of the enzyme was determined using the same enzyme assay method as described as above except that the various substrate solutions (400 mM) were used instead of L-gulono-gamma-lactone.

[2] = system: L-gulono-gamma-lactone dehydrogenase (GLDH); assay: Effect of metal ions on GLDH enzyme activity; assay type: biochemical, Gluconobacter oxydans DSM 4025
Protocol: The enzyme assay was performed at 25° C. by measuring the decrease of absorbance at 600 nm of DCIP spectrophotometrically. One unit of enzyme activity was defined as the amount of enzyme which catalyzed the reduction of 1 μmole of DCIP per minute. […] A reference cuvette contained all components except L-gulono gamma-lactone. The reaction was started by the addition of L-gulono-gamma-lactone. Enzyme activity was measured as the initial reduction rate of DCIP.
Using the same enzyme assay method as described under 1), the effect of various metal ions on the enzyme activity was examined.

[3] = system: L-gulono-gamma-lactone dehydrogenase (GLDH); conditions: conversion of L-gulono-gamma-lactone to L-ascorbic acid
[4] = system: L-gulono-gamma-lactone dehydrogenase (GLDH); assay: Effect of inhibitors on GLDH enzyme activity; assay type: biochemical, Gluconobacter oxydans DSM 4025
Protocol: as §1
Using the same enzyme assay method as described above, the effect of various inhibitors on the enzyme activity was examined. No compounds tested gave an inhibitory effect on the GLDH.

[5] = system: L-gulono-gamma-lactone dehydrogenase (GLDH); assay: Measurement of the Km value (DCIP enzyme assay); assay type: biochemical, Gluconobacter oxydans DSM 4025
Protocol: as §1
Using the same enzyme assay method as described above, the rate of the oxidizing reaction with varying the concentrations of L-gulono-gamma lactone from 0.18 mM to 90 mM was measured to determine the Km value for L-gulono-gamma-lactone.

Row | Molecule | Relative activity (%) ([2]; metal 0.19 mM) | Relative activity (%) ([2]; metal 0.38 mM) | Relative activity (%) ([2]; metal 0.89 mM) | also measured
1 | O=C[C@H](O)[C@@H](O)[C@@H](O)[C@H](O)CO [D-Galactose] | – | – | – | Relative activity (%) [1]: 0%
2 | O.O.O.O.O.O.O.O=S(=O)([O-])[O-].[Ni+2] [NiSO4.7H2 O] | 96 | 96 | 88 | –
3 | O.O.O.O=[N+]([O-])[O-].O=[N+]([O-])[O-].[Cu+2] [Cu(NO3)2.3H2 O] | 88 | 24 | 0 | –
4 | O.O.O.O.O.O.[Cl-].[Cl-].[Co+2] [CoCl2.6H2 O] | 102 | 110 | 100 | –
5 | O=O [oxygen] | – | – | – | enzyme activity with oxygen as electron acceptor [3]: lack of enzyme catalyzing activity
6 | O.O.[Cl][Cu][Cl] [CuCl2.2H2 O] | 84 | 8 | 0 | –
7 | [N-]=[N+]=[N-] [Sodium azide] | – | – | – | Relative activity (%) ([4]; inhibitor 0.96 mM): 100%; Relative activity (%) ([4]; inhibitor 1.89 mM): 97.6%; Relative activity (%) ([4]; inhibitor 4.46 mM): 97.6%
8 | O.O.O.O.[Cl][Mn][Cl] [MnCl2.4H2 O] | 100 | 0 | 0 | –
9 | O=C(O)[C@H](O)[C@@H](O)[C@H](O)[C@H](O)CO [D-Gluconic acid] | – | – | – | Relative activity (%) [1]: 0%
10 | O=C[C@@H](O)[C@@H](O)[C@H](O)[C@@H](O)CO [L-Gulose] | – | – | – | Relative activity (%) [1]: 0%
11 | O.O.O.O.O.O.O.O=S(=O)([O-])[O-].[Mg+2] [MgSO4.7H2 O] | 92 | 96 | 92 | –
12 | Fe(SO4)3.xH2 O | 104 | 92 | 76 | –
13 | O.O.O.O.O=[N+]([O-])[O-].O=[N+]([O-])[O-].[Ca+2] [Ca(NO3)2.4H2 O] | 100 | 100 | 96 | –
14 | [Cl-].[Cl-].[Zn+2] [ZnCl2] | 88 | 88 | 80 | –
15 | Cl.NO [Hydroxylamine hydrocloride] | – | – | – | Relative activity (%) ([4]; inhibitor 1.0 mM): 100%; Relative activity (%) ([4]; inhibitor 2.0 mM): 100%
16 | O=C(O)CN(CCN(CC(=O)O)CC(=O)O)CC(=O)O [EDTA] | – | – | – | Relative activity (%) [4]: 95.2% and 100% and 90.5%
17 | O.O.[Na+].[Na+].[O]=[Mo](=[O])([O-])[O-] [Na2 MoO4.2H2 O] | 104 | 96 | 88 | –
18 | O=C[C@H](O)[C@@H](O)[C@H](O)[C@H](O)CO [D-Glucose] | – | – | – | activity of GLDH on substrate [1]: weakly active; Relative activity (%) [1]: 23.4%
19 | O.O.O.O.O.O=S(=O)([O-])[O-].[Cu+2] [CuSO4.5H2 O] | 80 | 20 | 0 | –
20 | MnSO4.4-6H2 O | 100 | 0 | 0 | –
21 | O=C[C@H](O)[C@H]1OC(=O)[C@@H](O)[C@H]1O [D-Glucurono-r-lactone] | – | – | – | activity of GLDH on substrate [1]: weakly active; Relative activity (%) [1]: 6.38%

Row | Molecule | Relative activity (%) ([2]; metal 0.19 mM) | Relative activity (%) ([2]; metal 0.38 mM) | Relative activity (%) ([2]; metal 0.89 mM) | also measured
22 | O=C1O[C@H](CO)[C@@H](O)[C@H](O)[C@H]1O [D-Glucono-δ-lactone] | – | – | – | Relative activity (%) [1]: 0%
23 | [F-].[Na+] [Sodium fluoride] | – | – | – | Relative activity (%) ([4]; inhibitor 0.96 mM): 107.1%; Relative activity (%) ([4]; inhibitor 1.89 mM): 114.3%; Relative activity (%) ([4]; inhibitor 4.46 mM): 97.6%
24 | O=C1O[C@H]([C@@H](O)CO)[C@H](O)[C@@H]1O [L-Gulono-r-lactone, L-gulono-gamma-lactone] | – | – | – | Km ([5]; DCIP as the electron acceptor, substrate 0.18 mM to 90 mM, read-out: apparent Michaelis constant (Km)): 34.8 mM; substrate concentration of maximum reaction rate ([5]; substrate varied 0.18 mM to 90 mM): about 71.8 mM; activity of GLDH on substrate [1]: highly active; Relative activity (%) [1]: 100%
25 | O=C(O)c1cc[c]([Hg][Cl])cc1 [PCMB, p-chloro-mercuribenzoate] | – | – | – | Relative activity (%) ([4]; inhibitor 0.96 mM): 90.5%; Relative activity (%) ([4]; inhibitor 1.89 mM): 102.4%; Relative activity (%) ([4]; inhibitor 4.46 mM): 100%
26 | O=C[C@H](O)[C@@H](O)[C@H](O)[C@H](O)C(=O)O [D-Glucuronic acid] | – | – | – | Relative activity (%) [1]: 0%
27 | [Mn+2] [Mn^2+] | – | – | – | inhibition of the enzyme by metal ion [2]: strong inhibition
28 | O.O.O.O.O.O.O.O=S(=O)([O-])[O-].[Zn+2] [ZnSO4.7H2 O] | 88 | 88 | 76 | –
29 | O.O.O.O.O.O.O.O=S(=O)([O-])[O-].[Co+2] [CoSO4.7H2 O] | 96 | 108 | 88 | –
30 | O=C[C@@H](O)[C@@H](O)[C@H](O)[C@H](O)CO [D-Mannose] | – | – | – | activity of GLDH on substrate [1]: weakly active; Relative activity (%) [1]: 7.23%
31 | [Cu+2] [Cu^2+] | – | – | – | inhibition of the enzyme by metal ion [2]: strong inhibition
32 | [Ca+2].[Cl-].[Cl-] [CaCl2] | 96 | 104 | 96 | –
33 | O=S(=O)([O-])[O-].[Cu+2] [CuSO4] | 92 | 24 | 12 | –
34 | O=C[C@H](O)[C@@H](O)[C@H](O)CO [D-Xylose] | – | – | – | activity of GLDH on substrate [1]: highly active; Relative activity (%) [1]: 110.6%
35 | TiCl | 88 | 92 | 80 | –
36 | NN [Hydrazine monohydrate] | – | – | – | Relative activity (%) ([4]; inhibitor 1.0 mM): 100%
37 | O=C1O[C@H]([C@@H](O)CO)[C@@H](O)[C@@H]1O [L-Galactono-r-lactone, L-galactono-gamma-lactone] | – | – | – | activity of GLDH on substrate [1]: does not use L-galactono-gamma-lactone as a substrate; Relative activity (%) [1]: 0%
38 | CCN1C(=O)C=CC1=O [N-Ethyl-maleimide] | – | – | – | Relative activity (%) ([4]; inhibitor 0.96 mM): 95.2%; Relative activity (%) ([4]; inhibitor 1.89 mM): 100%; Relative activity (%) ([4]; inhibitor 4.46 mM): 100%
39 | O.O.O.O.O.O.[Cl-].[Cl-].[Mg+2] [MgCl2.6H2 O] | 96 | 96 | 96 | –
40 | O.O.O.O.O.O.O.O=[As]([O-])([O-])O.[Na+].[Na+] [Na2 HAsO4 7H2 O] | – | – | – | Relative activity (%) ([4]; inhibitor 0.96 mM): 95.2%; Relative activity (%) ([4]; inhibitor 1.89 mM): 104.8%; Relative activity (%) ([4]; inhibitor 4.46 mM): 97.6%
41 | O=C(O)CI [Monoiodoacetate] | – | – | – | Relative activity (%) [4]: 104.8% and 100% and 92.9%
